Laboratory results from US8524691B2, “Phosphonated rifamycins and uses thereof for the prevention and treatment of bone and joint infections” (The Medicines Company, priority 2008, dated 2013).
Values after ≈ are worked out from the molar mass of the structure shown. Values joined by “and” are separate entries in the source; they are usually repeats but may differ in a detail not shown here. Equal entries are not always repeated. Where two headings read alike, the source gives them in different places.

Assays:
S. aureus ATCC 29213 = assay: Antibacterial susceptibility (MIC), NCCLS broth microdilution; assay type: cell-based; conditions: CAMHB, 37° C., 18 h
Method: (§1) Susceptibility of S. aureus strains to the known antibiotics and synthesized compounds was determined by following the guidelines set by NCCLS (M26-A). Compounds were diluted two-fold serially in DMSO and transferred to cation-adjusted Mueller Hinton broth (CAMHB; Becton Dickinson). 50 μL of compounds diluted in CAMHB was mixed with 100 μL of bacteria diluted in CAMHB in 96-well microtiter plates. The final concentration of micro-organisms in the assay was 5×10^5c.f.u. per mL and the final concentration of DMSO in the assay was 1.25%. Assays were set up in duplicate and incubated at 37° C. for 18 h. The lowest concentration of compound that inhibited visible growth was reported as the minimum inhibitory concentration (MIC).

[1] = system: S. aureus ATCC 13709^A, Novobiocin and Rifampicin resistant variant; assay: as above; assay type: cell-based
Method: as §1

S. aureus ATCC 13709 [2] = assay: microbe, parasite or virus in culture; assay type: cell-based; conditions: for Serum dependence of antibacterial activity (in words): MIC with versus without serum; for MIC: Staphylococcus aureus, ATCC13709, 18 h
Method: as §1
Susceptibility testing experiments were also carried out in the presence of serum. These experiments were carried out similar to the susceptibility testing with the following modifications. 75 μL of compounds diluted in CAMHB was mixed with 75 μL of bacteria diluted in 100% serum from any given source (commercial pooled mouse serum (MS) and human serum (HS), Equitech-Bio Inc.) or diluted in 8% purified human serum albumin (HSA) (Calbiochem). The final concentration of animal serum in the assay was 50% and the final concentration of purified human serum albumin in the assay was 4%; the concentrations of all other components were identical to those described for susceptibility testing.

S. aureus ATCC 13709 [3] = assay: microbe, parasite or virus in culture; assay type: cell-based; conditions: for Antibacterial activity (in words, from Table 1): S. aureus MIC
Method: as §1

[4] = system: Novobiocin resistant mutant strain of S. aureus ATCC 13709; assay: Prophylactic efficacy in rat model of S. aureus bone infection; assay type: in vivo; conditions: tibia 24 h postinfection; for Measured bacterial titer, parent drug: rifabutin 20 mg/kg, listed as Parent drug
Method: To determine the in vivo activity of bisphosphonated prodrugs of Rifamycin derived antibacterials in comparison to their non-bisphosphonated parents, compounds 18, 19, 48a, 59, 66, 89, 95, 102, 110, 142b and 164 and their parent drug rifabutin were used as prophylactic therapeutics in an animal model of infection. Specifically, a spontaneous Novobiocin resistant mutant strain of S. aureus ATCC 13709 (a clinical osteomyelitis isolate), was grown overnight at 37° C. in brain heart infusion broth (BHIB). After 16 h of growth, cells were subcultured into fresh BHIB and incubated for 4 to 5 h at 37° C. The cells were washed twice with phosphate-buffered saline (PBS) and resuspended in BHIB supplemented with 10% (vol./vol.) fetal bovine serum at a density of approximately 10^10 colony forming units (CFU)/ml (based upon turbidimetry). The suspension was aliquoted and a portion was used to check the CFU count. The culture was stored frozen (−80° C.) and was used without subculture. For use as an inoculum the culture was thawed, diluted in PBS and kept in an ice bath until it was used.
Animals were infected as described by O'Reilly et al. (Antimicrobial Agents and Chemotherapy (1992), 36(12): 2693-97) to generate the bone infection. Female CD rats (age, 57 to 70 days; n=5/group; Charles River, St-Constant, Canada) were anaesthetized by isofluorane before and during the surgery. Following complete induction of anesthesia, the rat was placed ventral side up and hair was shaved from the surgical site. The skin over the leg was cleaned and disinfected (proviodine-ethanol 70%). A longitudinal incision below the knee joint was made in the sagital plane. The incision was made over the bone below the “knee joint” (tibia head or condyle) but not completely extending to the ankle. A high speed drill fitted with a 2 mm bulb bit was used to drill a hole into the medullar cavity of the tibia. Rats were injected intra-tibially with 0.05 ml 5% sodium morrhuate (sclerosing agent) and then with 0.05 ml of S. aureus suspension (ca. 2×10^7 CFU/rat). The hole was sealed by applying a small amount of dry dental cement which immediately absorbs fluids and adheres to the site. The wound was closed using 3 metal skin clips. Moxifloxacin (as a positive control) was injected once at 10 mg/kg intravenously 1 h postinfection in saline, while the Rifabutin derived prodrugs (prepared in 0.9% saline) were injected at the dose indicated in Table 3 as a single intravenous bolus at different time points prior to the infection.
Infected rats were sacrificed by CO2 asphyxiation 24 h postinfection to monitor the bacterial CFU count. Infected tibiae were removed, dissected free of soft tissue, and weighed. The bones were ground, 50 mg of charcoal were added and the powder was resuspended in 5 ml 0.9% NaCl, serially diluted and processed for quantitative cultures. Treatment efficacy was measured in terms of Log viable bacteria (Log CFU per gram of bone). […] The limit of detection is 2 Log CFU. Statistical comparisons of viable bacterial counts for the different treated and untreated groups were performed with the Dunnett's multiple-comparison test. Differences were considered significant when the P value was <0.05 when comparing treated infected animals to the untreated infected ones. The doses used, the amount of time separating the treatment from the time of infection and the treatment outcomes are shown in Table 3.

Row | Compound | Minimum inhibitory concentration, S. aureus ATCC 29213 (S. aureus ATCC 29213) [µg/mL] | Minimum inhibitory concentration, S. aureus ATCC 13709^A [1] [µg/mL] | Minimum inhibitory concentration, ATCC 13709 + 50% Human Serum (S. aureus ATCC 13709 [2]; 50% Human Serum) [µg/mL] | Minimum inhibitory concentration, ATCC 13709 + 50% Mouse Serum (S. aureus ATCC 13709 [2]; 50% Mouse Serum) [µg/mL] | Minimum inhibitory concentration, ATCC 13709 + 50% Rat Serum (S. aureus ATCC 13709 [2]) [µg/mL] | Minimum inhibitory concentration, S. aureus ATCC 13709 (S. aureus ATCC 13709 [3]; CAMHB, 37° C., 18 h) [µg/mL] | further results
1 | CO[C@H]1/C=C/O[C@@]2(C)Oc3c(C)c(O)c4c(c3C2=O)C2=NC3(CCN(CC(C)C)CC3)NC2=C(NC(=O)/C(C)=C\C=C\[C@H](C)[C@H](OC(=O)CN(C)CCOC(=O)CNC(=O)CCC(P(=O)(O)O)P(=O)(O)O)[C@@H](C)[C@@H](O)[C@@H](C)[C@H](OC(C)=O)[C@@H]1C)C4=O [Compound 42] | 0.25 (≈ 0.2 µM) | >128 | 0.0625 | 0.125 | 0.03125 | 0.125 (≈ 0.1 µM) | Antibacterial activity (in words, from Table 1) (S. aureus ATCC 13709 [3]): very low MICs whether in the absence or in the presence of serum
2 | CO[C@H]1/C=C/O[C@@]2(C)Oc3c(C)c(O)c4c(c3C2=O)C2=NC3(CCN(CC(C)C)CC3)NC2=C(NC(=O)/C(C)=C\C=C\[C@H](C)[C@H](OC(=O)CN(CCCCC(P(=O)(O)O)P(=O)(O)O)CCOC(C)=O)[C@@H](C)[C@@H](O)[C@@H](C)[C@H](OC(C)=O)[C@@H]1C)C4=O [Compound 48b] | 0.5 (≈ 0.41 µM) | >128 | 0.5 | 0.25 | 0.0625 | 0.25 (≈ 0.205 µM) | Antibacterial activity (in words, from Table 1) (S. aureus ATCC 13709 [3]): very low MICs whether in the absence or in the presence of serum
3 | CCCC(=O)OCCN(CCC(P(=O)(O)O)P(=O)(O)O)CC(=O)O[C@@H]1[C@@H](C)[C@@H](O)[C@@H](C)[C@H](OC(C)=O)[C@H](C)[C@@H](OC)/C=C/O[C@@]2(C)Oc3c(C)c(O)c4c(c3C2=O)C2=NC3(CCN(CC(C)C)CC3)NC2=C(NC(=O)/C(C)=C\C=C\[C@@H]1C)C4=O [Compound 52] | 8 (≈ 6.56 µM) | >128 | 16 | 2 | 0.5 | 4 (≈ 3.28 µM) | Serum dependence of antibacterial activity (in words) (S. aureus ATCC 13709 [2]): significant increase in antibacterial activity in serum
4 | CCCCOC(=O)NCCN(CCCCC(P(=O)(O)O)P(=O)(O)O)CC(=O)O[C@@H]1[C@@H](C)[C@@H](O)[C@@H](C)[C@H](OC(C)=O)[C@H](C)[C@@H](OC)/C=C/O[C@@]2(C)Oc3c(C)c(O)c4c(c3C2=O)C2=NC3(CCN(CC(C)C)CC3)NC2=C(NC(=O)/C(C)=C\C=C\[C@@H]1C)C4=O [Compound 71] | 8 (≈ 6.26 µM) | >128 | 16 | 8 | 1 | 4 (≈ 3.13 µM) | Serum dependence of antibacterial activity (in words) (S. aureus ATCC 13709 [2]): significant increase in antibacterial activity in serum
5 | CO[C@H]1/C=C/O[C@@]2(C)Oc3c(C)c(O)c4c(c3C2=O)C2=NC3(CCN(CC(C)C)CC3)NC2=C(NC(=O)/C(C)=C\C=C\[C@H](C)[C@H](OC(=O)CN(C)C(=O)CNC(=O)[C@@H](Cc2ccccc2)NC(=O)CNC(=O)CCC(P(=O)(O)O)P(=O)(O)O)[C@@H](C)[C@@H](O)[C@@H](C)[C@H](OC(C)=O)[C@@H]1C)C4=O.N.N [Compound 79a] | 16 | >128 | – | – | 64 | 16 | Minimum inhibitory concentration, ATCC 13709 + 50% Human Serum (S. aureus ATCC 13709 [2]): >128 µg/mL; Minimum inhibitory concentration, ATCC 13709 + 50% Mouse Serum (S. aureus ATCC 13709 [2]): >128 µg/mL
6 | CO[C@H]1/C=C/O[C@@]2(C)Oc3c(C)c(O)c4c(c3C2=O)C2=NC3(CCN(CC(C)C)CC3)NC2=C(NC(=O)/C(C)=C\C=C\[C@H](C)[C@H](OC(=O)CNC(=O)CNC(=O)[C@@H](Cc2ccccc2)NC(=O)CNC(=O)CCC(P(=O)(O)O)P(=O)(O)O)[C@@H](C)[C@@H](O)[C@@H](C)[C@H](OC(C)=O)[C@@H]1C)C4=O.N.N [Compound 79b] | 64 | >128 | 128 | 64 | 8 | 64 | –
7 | COc1c(N2C[C@@H]3CCCN[C@@H]3C2)c(F)cc2c(=O)c(C(=O)O)cn(C3CC3)c12 [Moxifloxacin, reference compound] | – | – | – | – | – | – | Measured bacterial titer, positive control ([4]; Moxifloxacin 10 mg/kg intravenously once 1 h postinfection, listed as Positive control): 2.62 ± 0.37 Log CFU/g of bone and 3.22 ± 0.65 Log CFU/g of bone and 2.27 ± 0.21 Log CFU/g of bone and 2.63 ± 0.65 Log CFU/g of bone and 2.06 ± 0.10 Log CFU/g of bone and 2.95 ± 1.07 Log CFU/g of bone and 2.2 ± 0.28 Log CFU/g of bone and 3.01 ± 0.74 Log CFU/g of bone
8 | CO[C@H]1/C=C/O[C@@]2(C)Oc3c(C)c(O)c4c(c3C2=O)C2=NC3(CCN(CC(C)C)CC3)NC2=C(NC(=O)/C(C)=C\C=C\[C@H](C)[C@H](O)[C@@H](C)[C@@H](O)[C@@H](C)[C@H](OC(C)=O)[C@@H]1C)C4=O [Rifabutin, reference compound] | – | – | – | – | – | – | MIC (S. aureus ATCC 29213; Staphylococcus aureus, ATCC29213, read-out: Minimum inhibitory concentration, S. aureus ATCC 29213): 0.0156 µg/mL (≈ 0.0184 µM); MIC (S. aureus ATCC 13709 [2]; read-out: Minimum inhibitory concentration, ATCC 13709 + 50% Human Serum): 0.0312 µg/mL; MIC (S. aureus ATCC 13709 [2]; read-out: Minimum inhibitory concentration, ATCC 13709 + 50% Mouse Serum): 0.0625 µg/mL; MIC (S. aureus ATCC 13709 [2]; read-out: Minimum inhibitory concentration, ATCC 13709 + 50% Rat Serum): 0.0312 µg/mL; MIC (S. aureus ATCC 13709 [3]; Staphylococcus aureus, ATCC13709, CAMHB, 37° C., 18 h, read-out: Minimum inhibitory concentration, S. aureus ATCC 13709): 0.0312 µg/mL (≈ 0.0369 µM); Measured bacterial titer, parent drug ([4]; 1 day prior to infection): 2.03 ± 0.07 Log CFU/g of bone and 2.09 ± 0.06 Log CFU/g of bone and 2.03 ± 0.09 Log CFU/g of bone and 2.07 ± 0.09 Log CFU/g of bone and 2.35 ± 1.12 Log CFU/g of bone; Measured bacterial titer, parent drug ([4]; 5 days prior to infection): 2.75 ± 0.94 Log CFU/g of bone and 4.27 ± 1.91 Log CFU/g of bone and 4.34 ± 0.79 Log CFU/g of bone and 4.71 ± 1.05 Log CFU/g of bone
